In patent US10391100B2, “Combination of aurora kinase inhibitors and anti-CD20 antibodies” (Millennium Pharmaceuticals, Inc., priority 2008, dated 2019):
Marks after values point to notes of the source that are not given here.

How the values were obtained:
Assay type in all cases: in vivo, human (in female SCID mice)
[1] = system: Ly19 lymphoma (cell line Ly-19); assay: Sub-cutaneous Ly19 lymphoma model, tumor volume (Example 1); conditions: for Pct Decrease in AUC Relative to Mean Vehicle AUC: Days 0 through 21; for Change in Slope: log tumor volume, slope (day 21 to 62) − slope (day 13 to 21)
Procedure: (§1) Tumor growth was monitored with vernier calipers. The mean tumor volume was calculated using the formula V=W^2×L/2.
P-values <0.05 were considered significant.

[2] = system: WSU-DLBCL2-Luc disseminated lymphoma; assay: Disseminated WSU-DLBCL2-Luc lymphoma model, second study (BID dosing); conditions: for Median Survival / Maximum Percent Body Weight Change (%) / TGI Mean (%): 2nd study; for TGI Mean (%): Day 22; for number of mice remaining at the end of the study: Day 130; for Pct Decrease in AUC Relative to Mean Vehicle AUC: second study, PO, BID, log10 photon flux vs day AUC, Days 0 through 21
Procedure: (§2) The Ly19-Luc, WSU-DLBCL2-Luc and PHTX-22-06 models described in these studies are human DLBCL cell lines, transfected with luciferase. These models were grown in immununocomprimised mice subcutaneously on the flank, or disseminated throughout the body by tail vain injection.
(§3) Two separate studies were conducted in the WSU-DLBCL2-luc model.

[3] = system: WSU-DLBCL2-Luc disseminated lymphoma; assay: Disseminated WSU-DLBCL2-Luc lymphoma model, first study (QD dosing); conditions: for Median Survival / Maximum Percent Body Weight Change (%) / TGI Mean (%): 1st study; for Maximum Percent Body Weight Change (%) / TGI Mean (%): Day 21; for Pct Decrease in AUC Relative to Mean Vehicle AUC: first study, PO, QD, log10 photon flux vs day AUC, Days 0 through 21
Procedure: as §2, §3

[4] = system: Ly19-Luc disseminated lymphoma; assay: Disseminated Ly19-Luc lymphoma model, Experiment #1 (Example 4); conditions: for Maximum Percent Body Weight Change / TGI Mean / BW change (maximum body-weight change): Day 24; for TGI: calculated on Day 24; for number of mice remaining by the end of the study: Day 132
Procedure: (§4) The in vivo experiments using the disseminated Ly19-Luc lymphoma model were performed in duplicate. […] Tumor volumes were estimated once weekly throughout the inoculation and treatment period using the Xenogen IVIS® imaging system (Xenogen Corporation, Alameda, Calif.). To image the mice, an intraperitoneal (IP) injection of […] (15 mg/ml), was administered 10 minutes prior to procedure and mice were anesthetized with 2% isofluorane 2-5 minutes throughout the scanning procedure. For Xenogen imaging, each mouse was imaged on dorsal and ventral views. The sum of 2 photon flux measurements was used for the analysis.
The antitumor effects of each treatment group were determined by calculating the percent TGI ([Δ control mean tumor volume−Δ treated mean tumor volume]×100/Δ control mean tumor volume) at the end of treatment. Mice were weighed once weekly for the duration of the study and the maximal percent body weight change was determined during the treatment period. […] Animals were removed from the study when they reached humane endpoints (>20%, body weight loss or paralysis of either both front or hind limbs), the medial survival for each group was determined and the survival rate of treatment groups were compared to control. Treatment groups were evaluated to determine if the effects of combination treatment were synergistic, additive or sub-additive relative to control.
(§5) The photon flux data was log10 transformed, and these values over the treatment period were compared across treatment groups to assess if the differences in the trends over time were statistically significant. A mixed-effects linear regression model using a restricted maximum likelihood was fit to the data. An ANOVA test was performed to determine if there was a statistically significant difference between the treatment groups and control.
(§6) Log10-transformed fold change photon flux values (tumor burden) from baseline were also used to calculate AUC values for each animal. The AUC values from the mice in a given treatment group were then averaged together to generate mean AUC values and associated standard errors.
(§7) A synergy score calculation was used to address the question of whether the effects of the combination treatment were synergistic, additive, or sub-additive relative to the individual treatments.
(§8) To compare the tumor regrowth rates after stopping treatment, mixed-effects piecewise linear regression models were built separately for each treatment group with mice monitored beyond treatment period. All P-values <0.05 were called significant in this report.
(§9) The survival rates of the animals in each treatment group were plotted using Kaplan-Meier curves and the log rank test was used to compare survival rates among pairs of treatment groups.

[5] = system: WSU-Luc lymphoma (cell line WSU-DLCL2); assay: Subcutaneous WSU-Luc lymphoma model, tumor volume (Example 2); conditions: Compound III-1 3 mg/kg, PO, qd; Days 0 through 20
Procedure: as §1
(§10) The statistical methodology used in these experiments was the same as that described in Example 1 above.

[6] = system: Ly19-Luc disseminated lymphoma; assay: Disseminated Ly19-Luc lymphoma model, Experiment #2 (Example 4)
Procedure: as §4
The antitumor effects of each treatment group were determined by calculating the percent TGI ([Δ control mean tumor volume−Δ treated mean tumor volume]×100/Δ control mean tumor volume) at the end of treatment. Mice were weighed once weekly for the duration of the study and the maximal percent body weight change was determined during the treatment period. Animals were monitored for survival up to 132 days following treatment. Animals were removed from the study when they reached humane endpoints (>20%, body weight loss or paralysis of either both front or hind limbs), the medial survival for each group was determined and the survival rate of treatment groups were compared to control. Treatment groups were evaluated to determine if the effects of combination treatment were synergistic, additive or sub-additive relative to control.
as §5, §6, §7, §8, §9
Mice were dosed according to the following treatment groups:
Mice were weighed and tumor volumes were estimated with Xenogen signal (average photon flux) calculation once a week throughout the inoculation and the treatment period and after the treatment until the end of study.
Treatment started 7 days following the inoculation of tumor cells into the tail vein, with an average photon flux measurement of 1×10^7 on treatment Day 0.

[7] = system: primary diffuse large B-cell lymphoma PHTX-22-06; assay: Sub-cutaneous primary diffuse large B-cell lymphoma model PHTX-22-06, tumor volume (Example 3); conditions: Compound III-1 20 mg/kg, PO, bid; Days 0 through 27
Procedure: Tumor growth was monitored with vernier calipers. The mean tumor volume was calculated using the formula V═W^2×L/2.
The animals were inoculated with 2×5 mm^3 tumor mass from primary […] tumor chunk at implant site Flank (trocar).
as §10

[8] = Compound III-1 10 mg/kg po/BID × 21 days
[9] = Compound III-1 20 mg/kg po/QD × 21 days (dose holiday Day 9 to Day 13)
[10] = Compound III-1 3 mg/kg po/QD × 21 days
[11] = Compound III-1 10 mg/kg po/QD × 21 days
[12] = Compound III-1 3 mg/kg Po/QD × 21 days
[13] = Compound III-1 10 mg/kg Po/QD × 21 days
[14] = Compound III-1 3 mg/kg PO QD × 3 wks, Day 23

COc1cc(Nc2ncc3c(n2)-c2ccc(Cl)cc2C(c2c(F)cccc2OC)=NC3)ccc1C(=O)O [Compound III-1, 4-{[9-chloro-7-(2-fluoro-6-methoxyphenyl)-5H-pyrimido[5,4-d][2]benzazepin-2-yl]amino}-2-methoxybenzoic acid] was tested, and the “Pct Decrease in AUC Relative to Mean Vehicle AUC” value ([1]; Compound III-1 3 mg/kg qd) was 22.9 Pct, the “Pct Decrease in AUC Relative to Mean Vehicle AUC” value ([1]; Compound III-1 10 mg/kg bid) was 105.6 Pct and the “Pct Decrease in AUC Relative to Mean Vehicle AUC” value ([1]; Compound III-1 10 mg/kg qd) was 79.3 Pct. The “Change in Slope” value ([1]; Compound III-1 10 mg/kg bid) was 0.018, the “Change in Slope” value ([1]; Compound III-1 10 mg/kg qd) was 0.040 and the “Median Survival” value [2, 8] was 70 days. For the same molecule, the “Maximum Percent Body Weight Change (%)” value ([2]; Compound III-1 10 mg/kg po/BID × 21 days, Day 19) was −3.9, Day 19%, the “TGI Mean (%)” value [2, 8] was 99.7, Day 22% and the “Median Survival” value [2, 9] was 111.5 days. The “Maximum Percent Body Weight Change (%)” value ([2]; Compound III-1 20 mg/kg po/QD × 21 days (dose holiday Day 9 to Day 13), Day 9) was −8.9, Day 9%, the “TGI Mean (%)” value [2, 9] was 99.7, Day 22% and the TGI ([2]; Compound III-1 alone 10 mg/kg BID) was 99.7%. The TGI ([2]; Compound III-1 alone 20 mg/kg BID) was 99.7%, the “mean maximum body weight loss” value ([2]; Compound III-1 at 20 mg/kg BID, Day 9) was 8.9% and the “number of mice remaining at the end of the study” value ([2]; 10 mg/kg single agent Compound III-1) was 1 out of 10. The “number of mice remaining at the end of the study” value ([2]; 20 mg/kg Compound III-1 single agent) was 5 out of 10, the “Pct Decrease in AUC Relative to Mean Vehicle AUC” value ([2]; Compound III-1 10 mg/kg) was 94.0% and the “Pct Decrease in AUC Relative to Mean Vehicle AUC” value ([2]; Compound III-1 20 mg/kg) was 96.6%. For the same molecule, the “Median Survival” value [3, 10] was 46.5 days, the “Maximum Percent Body Weight Change (%)” value [3, 10] was −3.1, Day 21% and the “TGI Mean (%)” value [3, 10] was 50.9, Day 21%. For the same molecule, the “Median Survival” value [3, 11] was 44 days, the “Maximum Percent Body Weight Change (%)” value [3, 11] was −4.5, Day 21% and the “TGI Mean (%)” value [3, 11] was 88.2, Day 21%. For the same molecule, the TGI ([3]; Compound III-1 alone 3 mg/kg QD) was 50.9%, the TGI ([3]; Compound III-1 alone 10 mg/kg QD) was 88.2% and the “Pct Decrease in AUC Relative to Mean Vehicle AUC” value ([3]; Compound III-1 3 mg/kg) was 21.1%. For the same molecule, the “Pct Decrease in AUC Relative to Mean Vehicle AUC” value ([3]; Compound III-1 10 mg/kg) was 42.0%, the “Median Survival” value [4, 12] was 40 days and the “Maximum Percent Body Weight Change” value [4, 12] was “+6.2, Day 24%”. The “TGI Mean” value [4, 12] was 89.6, %, the “Median Survival (Days)” value [4, 10] was 40, p < 0.01^c Days and the “BW change (maximum body-weight change)” value [4, 10] was “+6.2, Day 24%”. For the same molecule, the TGI [4, 10] was 89.6, p < 0.001%, the “Median Survival” value [4, 13] was 63.5 days and the “Maximum Percent Body Weight Change” value [4, 13] was “+3.3, Day 24%”. The “TGI Mean” value [4, 13] was 100, %, the “Median Survival (Days)” value [4, 11] was 63.5, p < 0.01 Days and the “BW change (maximum body-weight change)” value [4, 11] was “+3.3%, Day 24”. The TGI [4, 11] was 100, p < 0.001%, the tolerability ([4]; Compound III-1 at 3 or 10 mg/kg on a QD schedule) was “well tolerated” and the “number of mice remaining by the end of the study” value ([4]; single agent Compound III-1 3 mg/kg) was 1 out of 10. For the same molecule, the “number of mice remaining by the end of the study” value ([4]; single agent Compound III-1 10 mg/kg) was 3 out of 10, the “Pct Decrease in AUC Relative to Mean Vehicle AUC” value [5] was 19.4 Pct and the Mean BW Day 0 ([6]; Compound III-1 3 mg/kg PO QD × 3 wks, Day 0 (baseline)) was 19.2 g. For the same molecule, the “Maximum BW Change (%) Day 22” value ([6]; Compound III-1 3 mg/kg PO QD × 3 wks, Day 22) was “+3.1%”, the “Mean BW Day 22” value ([6]; Compound III-1 3 mg/kg PO QD × 3 wks, Day 22, in g (unit assumed)) was 19.81 and the “Mean Photon Flux (Day 23)” value [6, 14] was 2.34E+08. For the same molecule, the “TGI Day 23” value [6, 14] was 87.7%, the tolerability ([6]; Compound III-1 at 3 mg/kg on a QD schedule) was “well tolerated” and the “Mean AUC” value ([6]; log10 fold change photon flux vs day, up to Day 23, Compound III-1 3 mg/kg QD) was 18.2. For the same molecule, the “Pct Decrease in AUC Relative to Mean Vehicle AUC” value [7] was 79.3 Pct.
